Assay results as given in the supplement of paper PMC10307832.

Columns and labels:
Assay in all cases: relative viability (nuclei count vs DMSO), 5 days (fraction); higher = more cells survive
[1] = compound: C/C(=N\NC(=S)N1CCC1)/C2=CC=CC=N2 + CC(C)C[C@H](NC(=O)[C@H](Cc1ccccc1)NC(=O)c1cnccn1)B(O)O [Bortezomib] (partner 0.002 µM)
Summary of the method: (§1)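 After 5 days of treatment, lung cancer cells in 1536-well plates were fixed and stained in a single step (final 0.05% Triton X-100, 1% formaldehyde, 1 ug/ml Hoechst) and their nuclei counted on 4× images. Treatment had been applied by pin tool the day after seeding as one drug alone or as a fixed anchor-drug dose with five library-drug doses (not always all listed) in √10 steps. Relative viability is the nuclei count of treated wells divided by that of vehicle wells, and values are medians of duplicate plates.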

[2] = compound: C/C(=N\NC(=S)N1CCC1)/C2=CC=CC=N2 + Nc1nc2[nH]cc(CCc3ccc(C(=O)N[C@@H](CCC(=O)O)C(=O)O)cc3)c2c(=O)[nH]1 [Pemetrexed] (partner 0.2 µM)
Summary of the method: as §1

[3] = compound: C/C(=N\NC(=S)N1CCC1)/C2=CC=CC=N2 + O=C(c1cc(Cc2n[nH]c(=O)c3ccccc23)ccc1F)N1CCN(C(=O)C2CC2)CC1 [Olaparib] (partner 8 µM)
Summary of the method: as §1

[4] = compound: C/C(=N\NC(=S)N1CCC1)/C2=CC=CC=N2 + Cc1nc(NC(=O)N2CCC[C@H]2C(N)=O)sc1-c1ccnc(C(C)(C)C(F)(F)F)c1 [Alpelisib] (partner 2 µM)
Summary of the method: as §1

| Cell Line | relative viability ([1]; first compound 0.05 µM) | relative viability ([1]; first compound 0.1581 µM) | relative viability ([1]; first compound 0.5 µM) | relative viability ([1]; first compound 1.581 µM) | relative viability ([1]; first compound 5 µM) | relative viability ([2]; first compound 0.05 µM) | relative viability ([2]; first compound 0.1581 µM) | relative viability ([2]; first compound 0.5 µM) | relative viability ([2]; first compound 1.581 µM) | relative viability ([2]; first compound 5 µM) | relative viability ([3]; first compound 0.05 µM) | relative viability ([3]; first compound 0.1581 µM) | relative viability ([3]; first compound 0.5 µM) | relative viability ([3]; first compound 1.581 µM) | relative viability ([3]; first compound 5 µM) | relative viability ([4]; first compound 0.05 µM) | relative viability ([4]; first compound 0.1581 µM) | relative viability ([4]; first compound 0.5 µM) | relative viability ([4]; first compound 1.581 µM) | relative viability ([4]; first compound 5 µM) |
| --- | --- | --- | --- | --- | --- | --- | --- | --- | --- | --- | --- | --- | --- | --- | --- | --- | --- | --- | --- | --- |
| NCI-H2023 | 0.096 | 0.0935 | 0.0847 | 0.0887 | 0.0763 | 0.0924 | 0.0863 | 0.0863 | 0.0559 | 0.0883 | 0.0912 | 0.0578 | 0.0664 | 0.0644 | 0.0565 | 0.0758 | 0.0838 | 0.0704 | 0.0784 | 0.0669 |
| NCI-H2085 | 0.33 | 0.298 | 0.323 | 0.269 | 0.262 | 0.248 | 0.264 | 0.237 | 0.178 | 0.244 | 0.307 | 0.25 | 0.293 | 0.281 | 0.278 | 0.288 | 0.27 | 0.314 | 0.282 | 0.272 |
| NCI-H2087 | 0.219 | 0.223 | 0.309 | 0.132 | 0.125 | 0.16 | 0.181 | 0.214 | 0.163 | 0.119 | 0.123 | 0.113 | 0.138 | 0.144 | 0.0767 | 0.24 | 0.196 | 0.246 | 0.141 | 0.151 |
| NCI-H2126 | 0.364 | 0.244 | 0.223 | 0.201 | 0.186 | 0.235 | 0.221 | 0.212 | 0.219 | 0.208 | 0.344 | 0.889 | 0.186 | 0.191 | 0.17 | 0.327 | 0.748 | 0.224 | 0.218 | 0.186 |
| NCI-H2228 | 0.169 | 0.295 | 0.161 | 0.119 | 0.179 | 0.107 | 0.147 | 0.116 | 0.0863 | 0.121 | 0.125 | 0.142 | 0.138 | 0.115 | 0.107 | 0.154 | 0.18 | 0.227 | 0.124 | 0.147 |
| NCI-H2347 | 0.299 | 0.329 | 0.401 | 0.268 | 0.263 | 0.33 | 0.308 | 0.3 | 0.27 | 0.291 | 0.334 | 0.294 | 0.298 | 0.274 | 0.28 | 0.312 | 0.254 | 0.296 | 0.274 | 0.352 |
| NCI-H2405 | 0.275 | 0.31 | 0.322 | 0.286 | 0.989 | 0.243 | 0.238 | 0.251 | 0.215 | 0.215 | 0.259 | 0.272 | 0.268 | 0.252 | 0.208 | 0.179 | 0.198 | 0.276 | 0.202 | 0.199 |
| NCI-H3122 | 0.17 | 0.139 | 0.222 | 0.244 | 0.203 | 0.0953 | 0.11 | 0.11 | 0.149 | 0.15 | 0.118 | 0.291 | 0.0987 | 0.145 | 0.142 | 0.154 | 0.133 | 0.193 | 0.196 | 0.192 |
| PC-3 [JPC-3] | 0.377 | 0.318 | 0.312 | 0.292 | 0.215 | 0.394 | 0.464 | 0.308 | 0.265 | 0.237 | 0.581 | 0.506 | 0.432 | 0.382 | 0.351 | 0.556 | 1.03 | 0.341 | 0.282 | 0.208 |
| PC-14 | 0.114 | 0.106 | 0.0629 | 0.0768 | 0.0781 | 0.0492 | 0.0611 | 0.0691 | 0.0506 | 0.0521 | 0.0569 | 0.064 | 0.0532 | 0.0383 | 0.0401 | 0.108 | 0.0754 | 0.067 | 0.0556 | 0.0881 |
| RERF-LC-KJ | 0.256 | 0.298 | 0.304 | 0.243 | 0.267 | 0.211 | 0.231 | 0.235 | 0.191 | 0.222 | 0.255 | 0.248 | 0.274 | 0.271 | 0.255 | 0.212 | 0.234 | 0.23 | 0.205 | 0.256 |
| SK-LU-1 | 0.218 | 0.263 | 0.212 | 0.194 | 0.268 | 0.293 | 0.28 | 0.282 | 0.187 | 0.246 | 0.162 | 0.175 | 0.22 | 0.135 | 0.15 | 0.209 | 0.163 | 0.19 | 0.146 | 0.196 |
| SW 1573 | 0.143 | 0.115 | 0.151 | 0.117 | 0.087 | 0.0863 | 0.149 | 0.169 | 0.0609 | 0.0817 | 0.0806 | 0.0899 | 0.138 | 0.0631 | 0.0687 | 0.107 | 0.155 | 0.169 | 0.1 | 0.0847 |
| UMC-11 | 0.175 | 0.173 | 0.141 | 0.141 | 0.101 | 0.221 | 0.169 | 0.159 | 0.141 | 0.138 | 0.163 | 0.122 | 0.137 | 0.131 | 0.106 | 0.235 | 0.182 | 0.153 | 0.117 | 0.126 |
